# Results as given in patent publication US20160000126A1, “MODULATION OF SALTY TASTE […] ALTERING THE FUNCTION OF BITTER- OR PKD2L1-[…] RECEPTOR CELLS” (THE TRUSTEES OF COLUMBIA UNIVERSITY IN THE CITY OF NEW YORK, priority 2013, published 2016).
# Key:
# [1] = system: bitter taste receptor cells / high-salt sensing pathway; assay: chorda tympani nerve recordings before and after AITC application to the tongue; assay type: in vivo, mice
# Experimental: Lingual stimulation and recording procedures were performed as previously described (Chandrashekar et al. (2010); Nelson et al. (2002)). Data analysis used the integrated response during the 5 seconds of tastant stimulation.
# Responses to 20 mM citric acid (FIGS. 2 and 3), 60 mM NaCl (FIG. 8, 12, and 13), or 250 mM KCl before AITC application (FIG. 13) were used to normalize responses for each experimental series. For FIG. 7, data were normalized to 20 mM citric acid and then scaled to WT responses before AITC application. Data were analyzed for statistical significance using an unpaired, one-tailed Student's t-test and 95% confidence limits.
# To compute the amiloride-sensitive salt component, the stimulation regime involved sequential applications of NaCl solutions first without, and then with, amiloride (5 seconds pre- or pre- and post-incubation and co-application with NaCl solution) in the same experimental series. The amiloride-insensitive component was defined as the response in the presence of amiloride. The fraction of the response inhibited by amiloride was defined as the amiloride-sensitive component (amiloride-sensitive component=response without amiloride−response with amiloride).
# For pharmacological inhibition studies using allyl isothiocyanate (AITC), responses to a series of taste stimuli were measured. Then 3 mM AITC (Aldrich, 377430-5G) was applied to the tongue at a rate of 6 ml/minute for 5 minutes. The tongue was washed with artificial saliva for 1 minute and nerve responses to the same series of taste stimuli measured. Responses before and after AITC were compared for each animal. To minimize effects of recovery, responses after AITC were recorded within 15 minutes of AITC treatment.
# [2] = system: tongue carbonic anhydrases; assay: chorda tympani nerve recordings before and after DZA treatment of the tongue; assay type: in vivo, mice
# [3] = system: T2R32-Sapphire positive taste cells; assay: calcium imaging of fungiform taste receptor cells; assay type: cell-based; settings: T2R32-Sapphire mice; for response of T2R32-Sapphire positive taste cells to stimulus: 500 mM KCl (high-salt), 100 mM citric acid (sour)
# Experimental: Calcium imaging from fungiform TRCs was performed as previously described (Chandrashekar et al. (2010); Oka et al. (2006)).
# Fungiform TRCs were loaded in vivo with Calcium Green-1 dextran 3 kD (Invitrogen) by electroporating individual taste buds. Tongues were removed 24-36 hours after dye loading, and the epithelium was peeled enzymatically and placed in a custom recording chamber. The apical surface of the preparation was bathed in a constant flow of artificial saliva, and taste stimuli were delivered by focal application to individual taste buds. Tastants were applied for 1 second, with a minimum of 10 seconds of artificial saliva between stimuli. Changes in [Ca2+]i were monitored using a 5-Live confocal microscope (Zeiss) equipped with a ×40 C-Apochromat 1.20 W objective; images were captured at 4 Hz, and ΔF/F from individual TRCs analyzed and pseudo-colored as described previously (Chandrashekar et al. (2010)).
# To identify sapphire positive cells in T2R32-Sapphire mice, 405-nm excitation laser to separate sapphire and Calcium Green-1 fluorescence was used. Mean cellular fluorescence intensity (F) was calculated for the individual TRCs and basal fluorescence (Fo) was assigned to each cell by averaging fluorescence intensity over 3 seconds just before tastant application. ΔF/F was calculated as [F−Fo]/Fo; taste cells were considered responders when ΔF/F exceeded 3 standard deviations above Fo within 5 seconds of tastant application.
# CA4 = CA4 (Mus musculus, UniProt Q64444); settings: TRPM5-KO mice; before and after addition of 30 mM KHCO3 (pH7.4)
# Sequence of CA4 (Q64444 18-277): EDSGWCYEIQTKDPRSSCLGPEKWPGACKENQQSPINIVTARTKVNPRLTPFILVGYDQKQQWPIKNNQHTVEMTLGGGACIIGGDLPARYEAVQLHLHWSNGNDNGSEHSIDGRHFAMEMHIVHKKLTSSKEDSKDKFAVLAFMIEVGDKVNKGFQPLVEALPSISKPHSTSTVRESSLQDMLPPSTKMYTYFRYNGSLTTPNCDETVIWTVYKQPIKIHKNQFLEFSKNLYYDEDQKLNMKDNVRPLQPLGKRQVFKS
# [4] = control and T2R-PLC rescue animals, AITC treatment
compound,measurement,setting,value
"C=CCN=C=S [AITC, allyl isothiocyanate]",chorda tympani responses to high concentration of bitter tastant cycloheximide,"[1]; 1 mM cycloheximide, 1 and 30 minutes after AITC treatment",strongly suppresses
same,chorda tympani responses to other bitter tastants,"[1]; 10 mM denatonium and 10 mM quinine, after AITC treatment",suppressed
same,chorda tympani response to sour taste,"[1]; 20 mM citric acid, after AITC treatment",remained unimpaired
same,taste response evoked by AITC itself,[1]; 5 minutes exposure of the tongue to 3 mM AITC,minimal taste response
same,fraction of high-salt neural responses eliminated,"[1]; AITC treatment, FIG. 7",about 50%
same,remaining high-salt (KCl) responses in PKD2L1-TeNT mice,"[1]; PKD2L1-TeNT mice, further treatment with AITC",effectively abolished
same,bitter and high-salt taste responses in TRPA1-KO mice,"[1]; TRPA1-KO mice, with and without AITC",robust AITC-mediated suppression
same,nerve responses to high salt in TRPM5 and PLCβ2 knockout mice,"[1]; TRPM5-KO and PLCβ2-KO mice, before and after AITC",no longer sensitive
same,chorda tympani responses to 0.1 mM cycloheximide,[1]; [4],almost completely suppressed
same,chorda tympani responses to 500 mM KCl and 500 mM NaCl in the presence of 10 μM amiloride,[1]; [4],reduced by half
same,chorda tympani bitter responses,"[1]; wild type mice, 0.1 mM cycloheximide, after 3 mM AITC",completely inhibited
same,chorda tympani responses to low salt,"[1]; wild type mice, 60 mM NaCl, after 3 mM AITC",did not affect
same,chorda tympani responses to high-salt,"[1]; wild type mice, 250 or 500 mM NaCl + amiloride and KCl, after 3 mM AITC for 5 minutes",significantly suppressed
same,chorda tympani responses to KCl (selectively activates the high-salt pathway),"[1]; wild type mice, after 3 mM AITC",Identical suppression
same,chorda tympani responses to other taste qualities,"[1]; wild type mice, sour, sweet, umami tastants, after 3 mM AITC",did not affect
"CCN[C@H]1C[C@H](C)S(=O)(=O)c2sc(S(N)(=O)=O)cc21 [DZA, dorzolamide]",taste responses from PKD2L1-TeNT mice,"[2]; PKD2L1-TeNT mice, various salts, 0.5% w/v DZA",completely insensitive
same,sour and low salt taste responses,"[2]; TRPM5-KO mice, 20 mM citric acid, 60 mM NaCl, 0.5% w/v DZA",insensitive
same,CO2 chorda tympani responses,"[2]; TRPM5-KO mice, 0.5% w/v DZA",affected
same,high-salt induced chorda tympani responses from sour taste cells,"[2]; TRPM5-KO mice, 0.5% w/v DZA for 5 minutes",reduced
"[Cl-].[K+] [KCl, potassium chloride]",number of Sapphire-positive cells activated,[3]; 500 mM KCl,12 cells
same,response of T2R32-Sapphire positive taste cells to stimulus,[3],responded
O=C(O)O [KHCO3],chorda tympani responses to 500 mM KCl or 100 mM CaCl2 (PKD2L1-cell mediated high-salt responses),CA4,strong inhibition
O=C(O)CC(O)(CC(=O)O)C(=O)O [citric acid],response of T2R32-Sapphire positive taste cells to stimulus,[3],not
